The text below walks through data of US20120003270A1, “6-SUBSTITUTED ISOFLAVONOID COMPOUNDS AND USES THEREOF” (priority 2008, published 2012).

The test system of test [1] is NFκB. Briefly: NFκB promoter activity in transfected THP-1 cells (beta-lactamase reporter). In kind it is cell-based, human. The following applies: for Inflammatory index: TNFα 7.5 ng/ml, 5 h. As for the experimental part:
The assay utilizes a genetically modified THP-1 cell line and GeneBLAzer® beta-lactamase technology (Invitrogen Corp). The human THP-1 monocyte/macrophages contain a stably-transfected beta-lactamase reporter gene under control of the NFkB response element. They respond to stimulation with TNFα, which leads to activation of the NFkB signaling pathway. Co-incubation of cells with TNFα and test material allows quantitative determination of the ability of test material to inhibit TNFα-stimulated beta-lactamase production. An inflammatory index was calculated as the ratio of beta-lactamase product to beta-lactamase substrate.
In brief, genetically modified THP-1 cells were seeded into wells of a 96-well plate (50×10^3 cells/well) in the presence of RPMI 1640 medium (70 μl). TNFα was added to each well (10 μl) to give a final concentration of 7.5 ng/ml. Dialyzed bovine serum was added (10 μl). Test compounds were dissolved in DMSO (10 μL) (5 wells). Each plate contained a no-cell control (4 wells), a no-serum control (4 wells) and two serum controls. Plates were incubated for 5 h at 37° C. to allow for NFkB-stimulated beta-lactamase production. LiveBLAzer™ FRET B/G Substrate (CCF4-AM) substrate was then added to the assay. CCF4-AM is a Förster resonance energy transfer (FRET) based substrate for beta-lactamase developed by Invitrogen Corp. Once CCFA-AM enters a cell, it is converted to negatively charged CCF4 by endogenous esterases. Excitation of this substrate at 409 nm leads to efficient FRET between the coumarin and fluorescein moieties, resulting in a green fluorescence detectable at 530 nm. The presence of beta-lactamase leads to cleavage of CCF4 and results in a loss of FRET, resulting in a robust blue fluorescent signal detectable at 460 nm. Thus, activity of beta-lactamase (a marker of NFkB-promoter activity) is measured as a product to substrate ratio (blue/green fluorescence ratio: 460 nm/530 nm).

The subject of test [2] is VCAM-1. Briefly: TNFα-induced VCAM-1 expression in HAECs (ELISA). In kind it is cell-based, human. As to conditions: TNFα-stimulated HAECs, 405 nm. As for the experimental part:
Inhibition of TNFα-stimulated endothelial cell activation was assessed by measuring surface expression of cell adhesion molecules with an ELISA method. Human arterial endothelial cells (HAEC) in growth medium (Cell Applications Inc.) were seeded into 96-well plates at a density of 10,000 cells per well. Plates were incubated overnight at 37° C. in a humidified incubator to allow for cells to become confluent. On the morning of the experiment, TNFα (10 μl, 2 ng/ml) was added to each well, which contained 100 μl of medium. Test compounds were diluted in DMSO-containing medium (2.5% DMSO) to give a concentration of 100 and 300 μM. They were added to wells so that final concentrations were 10 and 30 μM. DMSO-containing medium alone was added to zero concentration control wells. All samples were measured in quadruplicate (4 wells per treatment).
After incubation with a compound of the formula (I), the medium was removed and cells were probed with either non-specific IgG or specific mouse antibodies (VCAM (BD Biosciences −0.1 μg in 100 μL buffered saline with 10% heat-inactivated human serum)).
Adhesion molecule expression was detected by addition of sheep anti-mouse antibody/horseradish peroxidase conjugate. Plates were allowed to stand for 30 minutes—monolayers were then washed, and sheep anti-mouse antibody/horseradish peroxidase conjugate (1:500 in 100 μL HBSS with 10% heat-inactivated human serum and 0.05% Tween 20) was added and left for 30 minutes. After further washing, 150 μL, ABTS substrate (Kirkegaard and Perry Laboratories) was added to each well and allowed to develop for 15 minutes. Optical density was measured at 405 nm with an ELISA reader (Titertek Multiscan, Flow Laboratories).
For orientation: ELISA stands for enzyme-linked immunosorbent assay.

Test [3] has as its system serum-treated zymozan air pouch inflammation. Briefly: Rat air pouch assay. In kind it is in vivo. As to conditions: for Cells in lavage fluid (×10^−7): intrapouch, mean ± SD; for Cells in lavage fluid (×10^−7) / PMN in tissue sections (per 100 squares): 4 h after STZ; for PMN in tissue sections (per 100 squares): pouch wall. As for the experimental part:
Air pouches were raised on the dorsum of female Dark Agouti rats, approximately seven weeks of age. To promote the formation of a cellular membrane lining the inside of each pouch, the pouches were maintained by re-inflating on days 2 and 5 after the initial injection of air. On re-inflation, the pouch was first deflated to ensure the needle was positioned correctly, before being re-inflated with 2 mL of sterile air. Using this protocol, the pouches remained inflated until use on day 7, when they were injected with 0.5 ml of either test compound or vehicle control. After 15 min, air pouches were injected with serum-treated zymozan (STZ—500 μg). Lavage of the air pouch (4×2 ml lavages) was performed at 4 h and leucocytes counted, after which the rats were killed, the air pouch excised and processed in formalin for histology. The sections were blinded to the person counting. Using a graticule with 100 squares and the 40× objective, the number of polymorphs (PMN) was counted in the pouch lining at 10 different and non-adjacent sites. Group sizes were 5-6 rats. Data were analysed for statistical significance within each experiment and using an unpaired t test. Compounds (1) and (3) were examined in this assay.

The subject of test [4] is PGE2. Nature of the test: PGE2 synthesis in RAW 264.7 (ELISA). In kind it is cell-based, mouse. The following applies: LPS 50 ng/ml, 16 hrs. The method, then:
The mouse macrophage cell line RAW 264.7 was cultured in DMEM supplemented with foetal calf serum (FCS), 2 mM glutamine and 50 U/ml penicillin/streptomycin. Cells were treated with either test compounds (in 0.025% DMSO) or vehicle alone, and added one hour before 50 ng/ml LPS. After incubation for 16 hrs, culture media was collected for PGE2 or TXB2 measurement by ELISA (Cayman Chemical), and TNFα measurement using an ELISA (Becton Dickinson).

Setting [5] is: treated rats compared with controls.

Molecules are shown by their SMILES. Marks after values point to notes of the source that are not given here.

For `CN(C)Cc1cc2c(cc1O)OCC(c1ccc(O)cc1)=C2` [Compound (1)], the Inflammatory index stood at 9.12 ± 0.26 in test [1] (10 μM, vehicle 8.92 ± 0.22); 10.05 ± 0.36 in test [1] (30 μM, vehicle 11.56 ± 0.49); 2.75 ± 0.11 in test [1] (100 μM, vehicle 9.48 ± 0.14). For the same compound, the “Effect on promoter activity of NFκB (in words)” value in test [1] (THP-1 cells, TNFα-stimulated) was “significantly reduced the promoter activity of NFκB at 10 μM and 100 μM”. Further, the “VCAM-1 expression, Absorbance” value in test [2] (10 μM) is given as 0.164 ± 0.012; in test [2] (30 μM), 0.208 ± 0.008. Besides, the “Cells in lavage fluid (×10^−7)” value in test [3] is on record as 0.43 ± 0.21^b ×10^−7. Moreover, the “PMN in tissue sections (per 100 squares)” value in test [3] was 13.03 ± 7.10 per 100 squares. For the same compound, the “Number of extravasated PMN in the pouch wall, fold less than controls” value in test [3] (setting [5]) is listed as “more than 3 fold”. Also, the “Number of exudate cells in the pouch cavity, fold less than controls” value in test [3] (setting [5]) is given as “more than 3 fold”. Moreover, the entries for the “PGE2” value in test [4] (1 μM) and in test [4] (10 μM) were 2601.37 ± 153.53 pg/mL and 847.96 ± 144.83 pg/mL, respectively.
Take `O=C(O)C1CCCN1Cc1cc2c(cc1O)OCC(c1ccc(O)cc1)=C2` (stereo not drawn) [Compound (3)]: the Inflammatory index in test [1] (10 μM, vehicle 8.92 ± 0.22) is reported as 8.88 ± 0.05; in test [1] (30 μM, vehicle 11.56 ± 0.49), 11.45 ± 0.86; in test [1] (100 μM, vehicle 9.48 ± 0.14), 8.59 ± 0.24. The “VCAM-1 expression, Absorbance” value in test [2] (10 μM) was 0.161 ± 0.16; in test [2] (30 μM) it was 0.215 ± 0.018. Also, in test [3], the “Cells in lavage fluid (×10^−7)” value was 1.73 ± 0.84 ×10^−7. For the same compound, the “PMN in tissue sections (per 100 squares)” value in test [3] is on record as 35.85 ± 12.89 per 100 squares. Also, the “PGE2” value in test [4] (1 μM) was found to be 2890.02 ± 320.91 pg/mL; in test [4] (10 μM), 2031.43 ± 261.59 pg/mL.
